# Experiments:
# Experiment in all cases: Kinase selectivity, DiscoverX scanMAX Kinase assay panel (% control)
# Format in all cases: binding
# [1] = target: T1, kinases of the scanMAX Kinase assay panel (Homo sapiens, UniProt P50750); conditions: CDK9; 1 uM
# T1 construct: purchased DiscoverX Co. (contract measurement) scanMAX Kinase assay panel
# In short: (§1)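 Compounds were tested at 1 uM (in DMSO) against each panel kinase. % control was calculated as (compound − positive control)/(negative control − positive control)×100, where the positive control gives 0% and DMSO gives 100%. Activity toward a kinase was called at % control <35%.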
# [2] = target: T2, kinases of the scanMAX Kinase assay panel (Homo sapiens, UniProt Q6ZWH5); conditions: NEK10; 1 uM
# T2 construct: purchased DiscoverX Co. (contract measurement) scanMAX Kinase assay panel
# T2 sequence (Q6ZWH5 1-1172): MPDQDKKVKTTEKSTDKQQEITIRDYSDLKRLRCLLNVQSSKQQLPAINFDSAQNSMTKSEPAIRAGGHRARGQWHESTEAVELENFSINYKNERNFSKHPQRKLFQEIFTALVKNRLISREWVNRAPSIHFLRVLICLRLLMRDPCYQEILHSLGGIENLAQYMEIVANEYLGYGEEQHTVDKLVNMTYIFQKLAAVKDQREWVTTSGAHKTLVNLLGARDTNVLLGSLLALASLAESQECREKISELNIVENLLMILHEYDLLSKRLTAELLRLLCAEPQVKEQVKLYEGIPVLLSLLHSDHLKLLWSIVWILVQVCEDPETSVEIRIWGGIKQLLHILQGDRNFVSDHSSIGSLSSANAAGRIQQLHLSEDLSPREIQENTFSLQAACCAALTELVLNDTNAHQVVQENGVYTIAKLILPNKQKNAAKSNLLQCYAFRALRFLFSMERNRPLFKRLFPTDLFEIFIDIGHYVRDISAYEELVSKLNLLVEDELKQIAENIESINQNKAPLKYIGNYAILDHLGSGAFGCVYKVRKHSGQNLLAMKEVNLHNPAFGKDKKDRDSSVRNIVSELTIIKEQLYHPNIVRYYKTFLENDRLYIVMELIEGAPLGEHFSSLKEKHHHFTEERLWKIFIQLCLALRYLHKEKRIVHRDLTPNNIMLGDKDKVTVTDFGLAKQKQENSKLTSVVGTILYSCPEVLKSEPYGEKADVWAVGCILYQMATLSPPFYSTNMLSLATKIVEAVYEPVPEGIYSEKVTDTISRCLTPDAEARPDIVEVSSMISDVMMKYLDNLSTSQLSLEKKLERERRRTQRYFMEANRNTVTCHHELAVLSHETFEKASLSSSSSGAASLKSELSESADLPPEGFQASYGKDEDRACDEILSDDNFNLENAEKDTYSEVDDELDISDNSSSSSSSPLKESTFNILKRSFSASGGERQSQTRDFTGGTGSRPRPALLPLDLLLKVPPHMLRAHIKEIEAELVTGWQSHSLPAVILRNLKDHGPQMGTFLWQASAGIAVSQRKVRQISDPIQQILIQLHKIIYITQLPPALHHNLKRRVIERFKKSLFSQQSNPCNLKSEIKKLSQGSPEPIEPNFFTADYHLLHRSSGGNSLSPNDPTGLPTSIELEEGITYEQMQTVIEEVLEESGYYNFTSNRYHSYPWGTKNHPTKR
# In short: as §1
# [3] = target: T3, kinases of the scanMAX Kinase assay panel (Homo sapiens, UniProt Q8IU85); conditions: CAMK1D; 1 uM
# T3 construct: purchased DiscoverX Co. (contract measurement) scanMAX Kinase assay panel
# In short: as §1
# [4] = target: T4, kinases of the scanMAX Kinase assay panel (Homo sapiens, UniProt Q99683); conditions: ASK1; 1 uM
# T4 construct: purchased DiscoverX Co. (contract measurement) scanMAX Kinase assay panel
# T4 sequence (Q99683 1-1374): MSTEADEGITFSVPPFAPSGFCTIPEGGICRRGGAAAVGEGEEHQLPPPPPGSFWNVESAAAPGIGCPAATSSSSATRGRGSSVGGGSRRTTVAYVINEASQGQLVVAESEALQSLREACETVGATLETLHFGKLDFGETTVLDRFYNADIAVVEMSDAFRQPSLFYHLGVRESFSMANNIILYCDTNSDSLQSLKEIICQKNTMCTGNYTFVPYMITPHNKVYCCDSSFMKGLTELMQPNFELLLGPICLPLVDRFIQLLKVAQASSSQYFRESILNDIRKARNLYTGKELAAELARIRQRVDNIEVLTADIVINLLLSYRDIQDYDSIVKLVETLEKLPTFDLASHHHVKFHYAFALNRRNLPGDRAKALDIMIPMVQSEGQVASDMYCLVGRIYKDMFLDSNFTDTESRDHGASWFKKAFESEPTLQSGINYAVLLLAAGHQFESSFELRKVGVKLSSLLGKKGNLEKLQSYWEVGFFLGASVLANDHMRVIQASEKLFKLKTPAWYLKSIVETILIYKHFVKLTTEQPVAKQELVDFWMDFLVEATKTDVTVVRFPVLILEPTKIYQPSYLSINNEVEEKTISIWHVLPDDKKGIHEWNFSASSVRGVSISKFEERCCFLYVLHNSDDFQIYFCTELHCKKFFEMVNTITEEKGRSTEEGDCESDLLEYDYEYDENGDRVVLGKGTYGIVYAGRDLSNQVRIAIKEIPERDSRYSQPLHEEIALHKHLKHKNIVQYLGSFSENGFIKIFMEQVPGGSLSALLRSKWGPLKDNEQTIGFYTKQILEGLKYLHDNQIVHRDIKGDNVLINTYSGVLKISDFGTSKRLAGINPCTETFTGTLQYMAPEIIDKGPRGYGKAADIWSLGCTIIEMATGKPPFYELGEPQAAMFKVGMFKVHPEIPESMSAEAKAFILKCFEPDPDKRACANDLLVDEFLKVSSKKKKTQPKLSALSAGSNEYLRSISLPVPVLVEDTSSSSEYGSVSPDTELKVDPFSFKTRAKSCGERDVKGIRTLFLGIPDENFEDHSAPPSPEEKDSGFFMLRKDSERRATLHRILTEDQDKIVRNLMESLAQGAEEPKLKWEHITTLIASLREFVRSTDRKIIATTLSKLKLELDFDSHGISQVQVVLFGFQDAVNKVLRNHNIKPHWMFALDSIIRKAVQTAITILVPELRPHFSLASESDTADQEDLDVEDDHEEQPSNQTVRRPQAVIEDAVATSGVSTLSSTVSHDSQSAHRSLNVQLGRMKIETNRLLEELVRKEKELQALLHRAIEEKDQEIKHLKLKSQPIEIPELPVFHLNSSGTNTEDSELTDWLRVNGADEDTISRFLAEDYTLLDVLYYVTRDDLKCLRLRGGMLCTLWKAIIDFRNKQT
# In short: as §1
# T3 sequence (Q8IU85 whole entry): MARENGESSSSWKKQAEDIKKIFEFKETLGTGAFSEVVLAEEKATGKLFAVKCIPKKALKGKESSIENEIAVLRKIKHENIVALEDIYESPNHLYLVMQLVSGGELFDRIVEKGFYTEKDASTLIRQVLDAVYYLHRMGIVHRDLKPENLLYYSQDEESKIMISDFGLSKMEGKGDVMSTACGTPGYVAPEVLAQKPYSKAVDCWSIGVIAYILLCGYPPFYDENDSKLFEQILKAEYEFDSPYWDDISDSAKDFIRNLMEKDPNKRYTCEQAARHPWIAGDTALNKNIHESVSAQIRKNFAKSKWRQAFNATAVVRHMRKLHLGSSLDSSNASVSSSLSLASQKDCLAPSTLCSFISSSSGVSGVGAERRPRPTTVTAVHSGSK
# T1 sequence (P50750 whole entry): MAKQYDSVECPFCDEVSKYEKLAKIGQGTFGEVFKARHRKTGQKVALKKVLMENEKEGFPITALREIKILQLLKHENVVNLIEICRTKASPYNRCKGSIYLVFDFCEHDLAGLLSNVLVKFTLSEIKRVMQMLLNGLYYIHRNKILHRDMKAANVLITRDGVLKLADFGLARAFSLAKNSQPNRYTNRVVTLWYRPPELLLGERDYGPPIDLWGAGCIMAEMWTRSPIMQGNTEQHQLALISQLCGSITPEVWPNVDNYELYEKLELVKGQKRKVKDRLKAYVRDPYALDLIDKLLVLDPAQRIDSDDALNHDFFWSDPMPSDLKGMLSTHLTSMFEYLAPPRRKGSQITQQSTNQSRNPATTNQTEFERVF
SMILES,remaining binding at 1 µM [1] [%],remaining binding at 1 µM [2] [%],remaining binding at 1 µM [3] [%],remaining binding at 1 µM [4] [%]
"CNc1nc(Nc2ccc(C(=O)N3CCOCC3)cc2OC)nc2[nH]cc(C#N)c12 [Example 1, 2-((2-methoxy-4-(morpholine-4-carbonyl)phenyl)amino)-4-(methylamino)-7H-pyrrolo[2,3-d]pyrimidine-5-carbonitrile]",96,53,50,57
"CC1(Nc2nc(Nc3cnn([C@H]4CCN(C5COC5)C[C@@H]4F)c3Cl)nc3[nH]cc(C#N)c23)CC1 [Example 52, 2-((5-chloro-1-((3S,4S)-3-fluoro-1-(oxetane-3-yl)piperidine-4-yl)-1H-pyrazole-4-yl)amino)((1-methylcyclopropyl)amino)-7H-pyrrolo[2,3-d]pyrimidine-5-carbonitrile]",84,0.95,14,1.8
"CCNc1nc(Nc2ccc(C(=O)N3CCC(N4CCOCC4)CC3)cc2OC)nc2[nH]cc(C(F)(F)F)c12 [Example 104, (4-((4-(ethylamino)-5-(trifluoromethyl)-7H-pyrrolo[2,3-d]pyrimidine-2-yl)amino)-3-methoxyphenyl)(4-morpholinopiperidine-1-yl)methanone]",100,100,66,82

# Source: patent publication US11208412B2 (DAEGU-GYEONGBUK MEDICAL INNOVATION FOUNDATION, priority 2017, dated 2021)
